Reference: patent publication US10782295B2, “Cysteine-reactive ligand discovery in proteomes” (THE SCRIPPS RESEARCH INSTITUTE, priority 2013, dated 2020)

Legend:
C22A-ZAK = target: T1, C22A-ZAK (Homo sapiens, UniProt Q9NYL2, C22A); assay: ZAK in vitro kinase activity assay (MBP substrate); format: biochemical; details: 10 or 100 μM HNE; immunoprecipitated enzyme
T1 construct: Full-length cDNA encoding human ZAK-13 (BC001401); expressed in transfected cells
Text: (§1) The gel signals for IA-labeling of WT-ZAK were blocked by pretreatment with HNE over a concentration range that closely matched the HNE-sensitivity profile observed for C22 in competitive isoTOP-ABPP experiments (FIG. 4b, compare to FIG. 3a). […] Considering further that C22 is predicted to reside adjacent to the ATP-binding loop of ZAK, we postulated that the HNE-induced loss of kinase activity might be due to blockade of ATP-binding.
(§2) The kinase activity assay protocol was adapted from Yu et al^5. Kinase assay buffers, Myeilin Basic Protein (MBP) substrate, and ATP stock solution were purchased from SignalChem. Radio-labeled [^33P]-ATP was purchased from PerkinElmer. 10 mg of soluble lysate of HEK-293T cells transfected with each of wild-type, C22A and K45M of ZAK were immunoprecipitated and then eluted with 2×300 μL FLAG-peptide buffer. […] The spotted P81 strips were air dried and then washed with 10 mL of 1% phosphoric acid for 3×10 min ZAK activity was measured by counting the radioactivity on the P81 paper in the presence of scintillation fluid in a scintillation counter after subtracting the value obtained from the corresponding no substrate control, and was normalized to that of ZAK-WT without HNE treatment. […]

WT-ZAK = target: T2, WT-ZAK (Homo sapiens, UniProt Q9NYL2); assay: ZAK in vitro kinase activity assay (MBP substrate); format: biochemical; details: 10 or 100 μM HNE; immunoprecipitated enzyme
T2 construct: Full-length cDNA encoding human ZAK-13 (BC001401); expressed in transfected cells
Text: as §1, §2

ZAK = ZAK (Homo sapiens, UniProt Q9NYL2); assay: SILAC-ABPP with acylphosphate-ATP probe; format: binding; set-up: Full-length cDNA encoding human ZAK-13 (BC001401); expressed in transfected cells; details: 100 μM, 30 min; ZAK-transfected HEK293T proteome
Text: as §1
HEK-293T cells with stable expression of wild-type ZAK were passaged six times in DMEM medium minus 1-lysine and 1-arginine (Thermo) supplemented 10% dialyzed FBS (Gemini), 1% PSQ (1% vol/vol 10,000 units penicillin, 10 mg streptomycin, 29.2 mg lglutamate solution) and 100 μg/mL [^13C6, ^15N4] 1-arginineHCl and [^13C6,^15N2] 1-lysineHCl (heavy) or 1-arginineHCl and 1-lysineHCl (light) (Sigma-Aldrich). […] The trypsin digested samples were analysed by LC-MS/MS and enriched kinase peptides were identified by SEQUEST and DTASelect. The amounts of probe-labeled kinases with and without HNE treatment were quantified using the CIMAGE module that was developed for quantitative SILAC-ABPP chemoproteomic profiling. As internal controls, light and heavy proteomes were trypsin digested without probe labeling and streptavidin enrichment, and analysed by LC-MS/MS to quantify the basic level of each kinase between light and heavy samples. […]

Compound: CCCCCC(O)/C=C/C=O (stereo not drawn) [4-HNE, 4-Hydroxynonenal]
- ZAK catalytic activity, C22A-ZAK residual activity (C22A-ZAK): insensitive
- ZAK catalytic activity, WT-ZAK (WT-ZAK): inhibited
- acylphosphate-ATP probe-labeling of ZAK (ZAK): profoundly reduced
